In assay [1] the target is T1, Androgen receptor (Homo sapiens, UniProt P10275).
T1 sequence (P10275 whole entry): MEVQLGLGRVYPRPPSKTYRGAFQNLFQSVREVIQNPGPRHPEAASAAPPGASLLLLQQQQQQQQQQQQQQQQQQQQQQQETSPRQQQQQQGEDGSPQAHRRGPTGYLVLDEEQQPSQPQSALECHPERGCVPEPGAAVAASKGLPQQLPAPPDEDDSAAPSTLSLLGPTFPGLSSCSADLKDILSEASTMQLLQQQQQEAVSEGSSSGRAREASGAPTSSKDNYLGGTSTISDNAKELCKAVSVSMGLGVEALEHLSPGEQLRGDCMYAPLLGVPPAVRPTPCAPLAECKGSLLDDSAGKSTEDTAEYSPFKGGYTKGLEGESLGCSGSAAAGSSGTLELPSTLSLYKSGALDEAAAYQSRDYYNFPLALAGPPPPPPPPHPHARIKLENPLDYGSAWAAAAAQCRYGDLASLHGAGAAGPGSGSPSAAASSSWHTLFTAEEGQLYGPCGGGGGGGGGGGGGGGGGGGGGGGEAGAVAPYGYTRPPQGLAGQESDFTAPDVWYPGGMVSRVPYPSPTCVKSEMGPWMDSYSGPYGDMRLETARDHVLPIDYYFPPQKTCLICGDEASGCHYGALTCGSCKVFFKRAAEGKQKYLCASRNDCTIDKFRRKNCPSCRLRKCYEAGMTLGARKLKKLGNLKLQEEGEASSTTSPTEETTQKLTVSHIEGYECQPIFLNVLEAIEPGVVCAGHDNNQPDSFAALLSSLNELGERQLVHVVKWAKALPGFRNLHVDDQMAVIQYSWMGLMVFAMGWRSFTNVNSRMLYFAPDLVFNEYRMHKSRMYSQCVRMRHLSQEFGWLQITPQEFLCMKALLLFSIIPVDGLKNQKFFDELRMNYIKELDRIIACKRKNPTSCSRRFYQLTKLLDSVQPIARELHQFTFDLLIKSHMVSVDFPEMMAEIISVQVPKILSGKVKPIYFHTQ
Put plainly: Antagonist activity at GAL4-fused human AR LBD (667 to 919 residues) expressed in CHO-K1 cells assessed as inhibition of dihydrotestosterone-induced transactivation activity after 5 to 6 hrs by luciferase reporter gene assay. The class given is cell-based.

The target in assay [2] is T2, Progesterone receptor (Homo sapiens, UniProt P06401).
T2 sequence (P06401 whole entry): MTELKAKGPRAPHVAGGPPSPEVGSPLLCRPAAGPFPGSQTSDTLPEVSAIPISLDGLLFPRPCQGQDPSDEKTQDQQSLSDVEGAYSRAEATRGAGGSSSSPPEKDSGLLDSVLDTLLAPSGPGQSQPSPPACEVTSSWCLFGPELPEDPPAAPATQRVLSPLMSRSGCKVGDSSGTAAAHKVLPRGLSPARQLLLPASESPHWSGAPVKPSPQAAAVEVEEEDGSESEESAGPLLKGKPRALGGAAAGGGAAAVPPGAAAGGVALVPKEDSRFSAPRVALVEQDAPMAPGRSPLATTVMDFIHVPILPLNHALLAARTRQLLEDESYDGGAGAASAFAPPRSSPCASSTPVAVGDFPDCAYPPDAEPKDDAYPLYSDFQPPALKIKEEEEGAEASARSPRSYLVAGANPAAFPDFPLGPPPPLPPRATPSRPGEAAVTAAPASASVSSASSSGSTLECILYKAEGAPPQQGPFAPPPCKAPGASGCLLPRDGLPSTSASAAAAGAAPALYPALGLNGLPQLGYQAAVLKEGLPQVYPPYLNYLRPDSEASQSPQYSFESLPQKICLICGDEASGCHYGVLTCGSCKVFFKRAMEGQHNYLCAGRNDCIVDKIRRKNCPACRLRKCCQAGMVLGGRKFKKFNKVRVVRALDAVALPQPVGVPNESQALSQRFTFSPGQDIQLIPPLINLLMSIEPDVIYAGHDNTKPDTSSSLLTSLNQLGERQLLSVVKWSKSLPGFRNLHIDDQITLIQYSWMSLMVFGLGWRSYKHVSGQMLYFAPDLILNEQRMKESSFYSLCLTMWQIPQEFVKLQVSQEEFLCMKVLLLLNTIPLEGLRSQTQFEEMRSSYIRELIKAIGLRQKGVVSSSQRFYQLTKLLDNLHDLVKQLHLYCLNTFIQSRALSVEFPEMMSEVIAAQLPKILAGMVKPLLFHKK
Nature of the assay: Antagonist activity at GAL4-fused human PR LBD (680 to 933 residues) expressed in CHO-K1 cells assessed as inhibition of progesterone-induced transactivation activity after 5 to 6 hrs by luciferase reporter gene assay. It counts as cell-based.

In assay [3] the target is T3, Glucocorticoid receptor (Homo sapiens, UniProt P04150).
T3 sequence (P04150 whole entry): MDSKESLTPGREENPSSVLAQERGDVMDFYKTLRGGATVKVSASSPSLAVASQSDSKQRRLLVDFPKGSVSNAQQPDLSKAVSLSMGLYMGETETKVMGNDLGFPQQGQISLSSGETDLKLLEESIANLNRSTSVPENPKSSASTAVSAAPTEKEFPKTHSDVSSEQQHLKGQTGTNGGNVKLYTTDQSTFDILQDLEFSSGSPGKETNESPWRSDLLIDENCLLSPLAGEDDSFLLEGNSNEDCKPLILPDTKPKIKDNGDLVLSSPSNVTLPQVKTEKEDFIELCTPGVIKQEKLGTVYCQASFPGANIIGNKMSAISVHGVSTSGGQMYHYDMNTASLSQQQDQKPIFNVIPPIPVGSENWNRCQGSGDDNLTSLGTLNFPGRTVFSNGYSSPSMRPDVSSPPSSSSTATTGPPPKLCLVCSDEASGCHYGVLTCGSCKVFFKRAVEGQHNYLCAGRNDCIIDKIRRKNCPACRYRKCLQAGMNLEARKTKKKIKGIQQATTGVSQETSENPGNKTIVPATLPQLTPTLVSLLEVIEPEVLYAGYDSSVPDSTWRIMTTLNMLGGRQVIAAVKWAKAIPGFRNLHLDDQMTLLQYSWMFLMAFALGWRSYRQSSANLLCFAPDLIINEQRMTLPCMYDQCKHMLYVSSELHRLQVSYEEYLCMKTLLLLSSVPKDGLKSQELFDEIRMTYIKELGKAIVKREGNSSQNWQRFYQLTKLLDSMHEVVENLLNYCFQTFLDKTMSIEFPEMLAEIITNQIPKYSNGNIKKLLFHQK
Nature of the assay: Antagonist activity at GAL4-fused human GR LBD (443 to 777 residues) expressed in CHO-K1 cells assessed as inhibition of dexamethasone-induced transactivation activity after 5 to 6 hrs by luciferase reporter gene assay. The class given is cell-based.

For assay [4], the species on record is Homo sapiens. Put plainly: Induction of improvement in urinary albumin-creatinine ratio in patient with diabetic nephropathy receiving ACE inhibitor or angiotensin receptor blocker at 7.5 to 20 mg/day during latter phase II trial. It counts as functional. Also on record: scale not given: the % may be the effect or the level left.

As to `CCOc1ncc(C)c2c1[C@H](c1ccc(C#N)cc1OC)C(C(N)=O)=C(C)N2` [FINERENONE], the 50% inhibitory concentration (IC50) in assay [1], in assay [2] and in assay [3] was not below 10 µM throughout. Also, the Activity in assay [4] is on record as 21 - 38%.

The values are drawn from ChEMBL document CHEMBL4007392, “Modulating Mineralocorticoid Receptor with Non-steroidal Antagonists. New Opportunities for the Development of Potent and Selective Ligands without Off-Target Side Effects” (J Med Chem, 2017).
